In the SangsterLogP compilation one finds logP data, which are given here for 10 compounds.

Molecules are shown by their SMILES.

Turning to `c1ccn2cccc2c1`, the logP was found to be 2.49.
As for `COc1cccc(-c2cc3ccccn3c2)c1`, the figure is 4.14.
As for `Clc1cccc(-c2cc3ccccn3c2)c1`, the figure is 5.14; as for `COc1ccc(-c2cc3ccccn3c2)cc1`, 4.2; as for `Brc1ccc(-c2cc3ccccn3c2)cc1`, 5.43.
As for `c1ccc(-c2cc3ccccn3c2)cc1`, the figure is 4.29.
Take `Cc1cccc(-c2ccc3cccn3c2)c1`: the logP is 4.87.
Compound `Brc1cccc(-c2cc3ccccn3c2)c1` displayed a logP of 5.31.
For `Cc1ccc(-c2cc3ccccn3c2)cc1` the value was 4.96; for `Clc1ccc(-c2cc3ccccn3c2)cc1`, 5.2.
